Like-named read-outs stand apart in the source and are kept apart here. Where no end group is shown, it is not given here.
Legend:
advanced cancer patients [1] = test: 24 h ECG recording (mean heart rate, SDNN, NSVT) in advanced cancer patients receiving heart failure drugs, case series; format: in vivo, human
Protocol: (§1) In some cases, SGLT2 inhibitors, Dapagliflozin or Empagliflozin can be used for treatment of type 2 diabetes, heart failure, or a combination thereof. Disclosed herein are methods comprising administering these drugs to advanced cancer patients to improve a heart muscle in these patients. We here describe 5 advanced cancer patients, who were treated with either an SGLT2 inhibitor, an ACE inhibitor, a beta-blocker or an Angiotensin receptor blocker, all of which are shown to be effective heart failure therapies.

advanced cancer patients [2] = test: Echocardiogram (LVEF, LV mass) in advanced cancer patients receiving heart failure drugs, case series; format: in vivo, human
Protocol: as §1

advanced cancer patients [3] = test: Self-rated health / EQ5D5L index in advanced cancer patients receiving heart failure drugs, case series; format: in vivo, human; conditions: for Self-rated health: 1=very good, 5=very poor; for Symptom status, EQ5D5L Index: 1 best possible, 0 worst possible
Protocol: as §1

advanced cancer patients [4] = test: Hand grip strength, 4 meter walk and 6-minute walk test in advanced cancer patients receiving heart failure drugs, case series; format: in vivo, human
Protocol: as §1

advanced cancer patients [5] = test: Interpretation of case reports: protection from heart muscle wasting, NSVT and early death; format: in vivo, human
advanced cancer patients [6] = test: Survival follow-up of advanced cancer patients receiving heart failure drugs, case series; format: in vivo, human
[7] = test system: patients with advanced cancer; conditions: cited from earlier work
[8] = Case 6: Colorectal Cancer UICC stage 4, Candesartan 16 mg and Dapagliflozin 10 mg with co-medication
[9] = Case 12: Multiple Myeloma stage 3, Spironolactone 25 mg, Candesartan 32 mg and Candesartan 8 mg listed, with co-medication
[10] = Case 13: Lung cancer UICC stage 4B, Spironolactone 25 mg and Candesartan 32 mg with co-medication
[11] = Case 9: Lung Cancer UICC stage 4, Candesartan 32 mg and Metoprolol 95 mg with co-medication
[12] = Case 7: lymphoma Ann Arbor Stage 2A, Empagliflozin 10 mg with co-medication
[13] = Case 8: Pancreas Cancer UICC stage 4, Nebivolol 7.5 mg with co-medication
[14] = Case 10: Lymphoma Ann Arbor stage 4 E, Ramipril 2.5 mg with co-medication
[15] = Case 11: Lymphoma Ann Arbor stage 4 E, Ramipril 10 mg with co-medication
[16] = Case 14: Breast Cancer UICC stage 4, Spironolactone 25 mg with co-medication
[17] = Case A: pancreatic cancer metastasized to liver, Gemcitabine, pre-study vs post-study
[18] = Case B: gastrointestinal cancer metastasized to liver, Capecitabine
[19] = Case C: advanced mesothelioma, FOLFIRI
[20] = Case D: head & neck cancer metastasized to lungs, Cetuximab, pre-study vs post-study

Compound: CCOc1nc2cccc(C(=O)O)c2n1Cc1ccc(-c2ccccc2-c2nnn[nH]2)cc1 [Candesartan]
- Heart rate variability SDNN (24 h ECG) (advanced cancer patients [1]; [8]): 160 ms
- Mean heart rate (24 h ECG) (advanced cancer patients [1]; [8]): 70 beats per minute
- Heart rate variability SDNN (24 h ECG) (advanced cancer patients [1]; [9]): 112 ms
- Mean heart rate (24 h ECG) (advanced cancer patients [1]; [9]): 69 beats per minute
- Heart rate variability SDNN (24 h ECG) (advanced cancer patients [1]; [10]): 101 ms
- LV mass (echocardiogram) (advanced cancer patients [2]; [8]): 247 gram
- LVEF (echocardiogram) (advanced cancer patients [2]; [8]): 68%
- LV mass (echocardiogram) (advanced cancer patients [2]; [11]): 326 gram
- LVEF (echocardiogram) (advanced cancer patients [2]; [11]): 67%
- LV mass (echocardiogram) (advanced cancer patients [2]; [10]): 148 gram
- LVEF (echocardiogram) (advanced cancer patients [2]; [10]): 66%
- Self-rated health (advanced cancer patients [3]; [8]): 4
- Self-rated health (advanced cancer patients [3]; [11]): 2
- Symptom status, EQ5D5L Index (advanced cancer patients [3]; [9]): 0.887
- Distance in 6-minute walk test (advanced cancer patients [4]; [8]): 504 meters
- Hand grip strength (advanced cancer patients [4]; [8]): 46 kg
- Distance walked in 6 minutes (advanced cancer patients [4]; [11]): 440 meters
- Hand grip muscle strength (advanced cancer patients [4]; [11]): 43 kg
- Distance walked in 6 minutes (advanced cancer patients [4]; [9]): 527 meters
- Hand grip muscle strength (advanced cancer patients [4]; [9]): 47 kg
- Time to walk 4 meters (advanced cancer patients [4]; [9]): 2.5 s
- Hand grip muscle strength (advanced cancer patients [4]; [10]): 40 kg

Compound: CCOc1ccc(Cc2cc([C@@H]3O[C@H](CO)[C@@H](O)[C@H](O)[C@H]3O)ccc2Cl)cc1 [Dapagliflozin]
- Heart rate variability SDNN (24 h ECG) (advanced cancer patients [1]; [8]): 160 ms
- Mean heart rate (24 h ECG) (advanced cancer patients [1]; [8]): 70 beats per minute
- LV mass (echocardiogram) (advanced cancer patients [2]; [8]): 247 gram
- LVEF (echocardiogram) (advanced cancer patients [2]; [8]): 68%
- Self-rated health (advanced cancer patients [3]; [8]): 4
- Distance in 6-minute walk test (advanced cancer patients [4]; [8]): 504 meters
- Hand grip strength (advanced cancer patients [4]; [8]): 46 kg

Compound: OC[C@H]1O[C@@H](c2ccc(Cl)c(Cc3ccc(O[C@H]4CCOC4)cc3)c2)[C@H](O)[C@@H](O)[C@@H]1O [Empagliflozin]
- Heart rate variability SDNN (24 h ECG) (advanced cancer patients [1]; [12]): 224 ms
- Mean heart rate (24 h ECG) (advanced cancer patients [1]; [12]): 84 beats per minute
- Non-sustained ventricular tachycardia (24 h ECG) (advanced cancer patients [1]; [12]): no non-sustained ventricular tachycardia
- Interpretation of the case (advanced cancer patients [5]; [12]): protected from heart muscle wasting, life-threatening non-sustained ventricular tachycardia and early death
- LV mass (echocardiogram) (advanced cancer patients [2]; [12]): 365 gram
- LVEF (echocardiogram) (advanced cancer patients [2]; [12]): 64%
- Self-rated health (advanced cancer patients [3]; [12]): 2
- Hand grip strength (advanced cancer patients [4]; [12]): 46
- Time to walk 4 meters (advanced cancer patients [4]; [12]): 3.5 s
- Survival (still alive after) (advanced cancer patients [6]; [12]): > 324 days

Compound: COCCc1ccc(OCC(O)CNC(C)C)cc1 (stereo not shown) [Metoprolol]
- Non-sustained ventricular tachycardia (24 h ECG) (advanced cancer patients [1]; [11]): no non-sustained ventricular tachycardia
- Interpretation of the case (advanced cancer patients [5]; [11]): protected from heart muscle wasting, life-threatening non-sustained ventricular tachycardia and early death
- LV mass (echocardiogram) (advanced cancer patients [2]; [11]): 326 gram
- LVEF (echocardiogram) (advanced cancer patients [2]; [11]): 67%
- Self-rated health (advanced cancer patients [3]; [11]): 2
- Distance walked in 6 minutes (advanced cancer patients [4]; [11]): 440 meters
- Hand grip muscle strength (advanced cancer patients [4]; [11]): 43 kg

Compound: OC(CNCC(O)C1CCc2cc(F)ccc2O1)C1CCc2cc(F)ccc2O1 (stereo not shown) [Nebivolol]
- Heart rate variability SDNN (24 h ECG) (advanced cancer patients [1]; [13]): 124 ms
- Mean heart rate (24 h ECG) (advanced cancer patients [1]; [13]): 62 beats per minute
- Non-sustained ventricular tachycardia (24 h ECG) (advanced cancer patients [1]; [13]): no non-sustained ventricular tachycardia
- Interpretation of the case (advanced cancer patients [5]; [13]): protected from heart muscle wasting, life-threatening non-sustained ventricular tachycardia and early death
- LV mass (echocardiogram) (advanced cancer patients [2]; [13]): 236 gram
- LVEF (echocardiogram) (advanced cancer patients [2]; [13]): 65%
- Self-rated health (advanced cancer patients [3]; [13]): 3
- Hand grip muscle strength (advanced cancer patients [4]; [13]): 27 kg
- Time to walk 4 meters (advanced cancer patients [4]; [13]): 4.6 s
- Survival (still alive after) (advanced cancer patients [6]; [13]): > 337 days

Compound: CCOC(=O)[C@H](CCc1ccccc1)N[C@@H](C)C(=O)N1[C@H](C(=O)O)C[C@@H]2CCC[C@@H]21 [Ramipril]
- Heart rate variability SDNN (24 h ECG) (advanced cancer patients [1]; [14]): 95 ms
- Mean heart rate (24 h ECG) (advanced cancer patients [1]; [14]): 64 beats per minute
- Non-sustained ventricular tachycardia (24 h ECG) (advanced cancer patients [1]; [14]): no non-sustained ventricular tachycardia
- Heart rate variability SDNN (24 h ECG) (advanced cancer patients [1]; [15]): 120 ms
- Mean heart rate (24 h ECG) (advanced cancer patients [1]; [15]): 77 beats per minute
- Non-sustained ventricular tachycardia (24 h ECG) (advanced cancer patients [1]; [15]): no non-sustained ventricular tachycardia
- Interpretation of the case (advanced cancer patients [5]; [14]): protected from heart muscle wasting, life-threatening non-sustained ventricular tachycardia and early death
- Interpretation of the case (advanced cancer patients [5]; [15]): protected from heart muscle wasting, life-threatening non-sustained ventricular tachycardia and early death
- LV mass (echocardiogram) (advanced cancer patients [2]; [14]): 189 gram
- LVEF (echocardiogram) (advanced cancer patients [2]; [14]): 63%
- LV mass (echocardiogram) (advanced cancer patients [2]; [15]): 227 gram
- LVEF (echocardiogram) (advanced cancer patients [2]; [15]): 67%
- Self-rated health (advanced cancer patients [3]; [14]): 3
- Symptom status, EQ5D5L Index (advanced cancer patients [3]; [15]): 0.999
- Distance walked in 6 minutes (advanced cancer patients [4]; [14]): 440 meters
- Hand grip muscle strength (advanced cancer patients [4]; [14]): 29 kg
- Time to walk 4 meters (advanced cancer patients [4]; [14]): 3.5 s
- Hand grip muscle strength (advanced cancer patients [4]; [15]): 47 kg
- Survival (still alive after) (advanced cancer patients [6]; [14]): > 458 days
- Survival (still alive after) (advanced cancer patients [6]; [15]): > 666 days

Compound: CC(=O)S[C@@H]1CC2=CC(=O)CC[C@]2(C)[C@H]2CC[C@@]3(C)[C@@H](CC[C@@]34CCC(=O)O4)[C@H]12 [Spironolactone]
- Heart rate variability SDNN (24 h ECG) (advanced cancer patients [1]; [9]): 112 ms
- Mean heart rate (24 h ECG) (advanced cancer patients [1]; [9]): 69 beats per minute
- Non-sustained ventricular tachycardia (24 h ECG) (advanced cancer patients [1]; [9]): no non-sustained ventricular tachycardia
- Heart rate variability SDNN (24 h ECG) (advanced cancer patients [1]; [10]): 101 ms
- Non-sustained ventricular tachycardia (24 h ECG) (advanced cancer patients [1]; [10]): no non-sustained ventricular tachycardia
- Average heart rate (24 h ECG) (advanced cancer patients [1]; [16]): 85 bpm
- Heart rate variability SDNN (24 h ECG) (advanced cancer patients [1]; [16]): 142 ms
- Non-sustained ventricular tachycardia (24 h ECG) (advanced cancer patients [1]; [16]): no non-sustained ventricular tachycardia
- Interpretation of the case (advanced cancer patients [5]; [10]): protected from heart muscle wasting, life-threatening non-sustained ventricular tachycardia and early death
- Interpretation of the case (advanced cancer patients [5]; [16]): protected from heart muscle wasting, life-threatening non-sustained ventricular tachycardia and early death
- LV mass (echocardiogram) (advanced cancer patients [2]; [10]): 148 gram
- LVEF (echocardiogram) (advanced cancer patients [2]; [10]): 66%
- LV mass (echocardiogram) (advanced cancer patients [2]; [16]): 233 gram
- LVEF (echocardiogram) (advanced cancer patients [2]; [16]): 67%
- Symptom status, EQ5D5L Index (advanced cancer patients [3]; [9]): 0.887
- Distance walked in 6 minutes (advanced cancer patients [4]; [9]): 527 meters
- Hand grip muscle strength (advanced cancer patients [4]; [9]): 47 kg
- Time to walk 4 meters (advanced cancer patients [4]; [9]): 2.5 s
- Hand grip muscle strength (advanced cancer patients [4]; [10]): 40 kg
- Hand grip muscle strength (advanced cancer patients [4]; [16]): 40 kg
- Survival (still alive after) (advanced cancer patients [6]; [16]): > 235 days

Compound: Ghrelin (GSSFLSPEHQRVQQRKESKKPPAKLQPR; ends and bridges not checked; UniProt Q9UBU3 24-51, looked up) [a gut-derived 28-amino acid peptide hormone]
- Change in muscle mass [7, 17]: no change
- Increase in muscle strength [7, 17]: 2%
- Increase in steps/day [7, 17]: 40%
- Adverse event [7, 18]: hospitalized for atrial fibrillation, which was an AE deemed unrelated to ghrelin
- Patient comment about using ghrelin [7, 18]: Feel more active
- Adverse event [7, 19]: increase in tumor pain, an AE deemed unrelated to ghrelin
- Patient opinion about using ghrelin [7, 19]: This is the first therapy which improves my well-being
- Survival [7, 19]: 62 days
- Decrease in muscle mass ([7]; Case C: advanced mesothelioma, FOLFIRI, pre-study vs post-study): 3%
- Change in muscle mass [7, 20]: no change
- Increase in muscle strength [7, 20]: 6%
- Increase in steps/day [7, 20]: 63%

Source: US20230082989A1, “DEVICES AND METHODS FOR TREATING CANCER AND CARDIAC WASTING” (Nazzano Devices Limited, priority 2020, published 2023)
